Data published in US20100249071A1, “Modulators of S1P and Methods of Making And Using” (Exelixis, Inc., priority 2009, published 2010).
Read-outs that look alike come from different tables or passages of the source.

Legend:
[1] = molecular target: T1, hS1PR5 (hEdg8) membrane protein (Homo sapiens, UniProt Q9H228); experiment: hS1P5R GTPγS binding assay (Assay 4); type: biochemical
T1 construct: expressed in transfected cells; host or cells: CHO
Procedure: The hS1PR5 GTPγS binding assay was carried out at room temperature in 96-well non-binding surface assay plates. The reaction in each well contained 5 μg hS1PR5 (hEdg8) membrane protein from CHO cells expressing hS1PR5, 30 μM GDP, 0.1 nM [^35S]GTPγS, 0.25% fatty acid free BSA, and serially-diluted Compound of the Invention in 200 μL assay buffer (25 mM Tris-HCl PH 7.9, 100 mM NaCl, 3 mM MgCl2, and 0.2 mM EGTA). After one hour of incubation, 0.9 mg of WGA (Wheat Germ Agglutinin) SPA beads in 50 μL of assay buffer was added to each well. The SPA beads were spun down after an additional one hour incubation. The radioactivity of the bound GTPγS was counted by reading the assay plate using a MicroBeta.

[2] = molecular target: T2, S1P1 (Homo sapiens, UniProt P21453); experiment: Tango β-arrestin recruitment assay in U2OS cells (Assay 2b); type: cell-based; settings: read-out: Assay 2b EC50
T2 construct: host or cells: U2OS
From the text: (§1) For the Tango™ β-arrestin recruitment assay, the cytoplasmic C-terminus of S1P1 was tethered to the tTA transcriptional activator with a linker that contains a cleavage site for the N1a protease from tobacco etch virus (TEV protease). The C-terminus of the human β-arrestin2 protein was fused to TEV protease. Binding of an agonist recruits the βl -arrestin-TEV fusion protein to the receptor resulting in cleavage of the linker and released of tTA to enter the nucleus and subsequently activated a tTA-dependent luciferase reporter gene.
Assay 2b: Alternatively, U2OS cells expressing the reporter gene and S1P1 (Invitrogen) were added to the wells of a 384-well white opaque bottom assay plate (PerkinElmer) at […]. The cells were serum starved for 48 h in Freestyle medium (Invitrogen). Test compounds were tested at maximum concentrations of 1 μM for the agonist assay. Compounds were diluted in DMSO (10 concentration points, 3-fold each) and added to the assay plate at a 1% final DMSO concentration. The efficacy control was 1 μM S1P (Avanti). For each compound, there were duplicate assay plates and each assay plate had duplicate wells per concentration point. The plate was incubated overnight at 37° C. The GeneBLAzer β-lactamase assay reagent (Invitrogen) was added and the plates were incubated for an additional 2 h at room temperature. Fluorescence was measured using an EnVision plate reader (PerkinElmer, Waltham, Mass.) at an excitation wavelength of 409 nm and emission wavelengths of 460 nm and 530 nm. The emission intensity at each wavelength was background subtracted against wells containing medium only and the F460 nm/F530 nm ratio determined for each concentration of the test compounds. Percent activity was calculated as [(test compound ratio−DMSO ratio)/(positive control ratio−DMSO ratio)*100], where the positive control and DMSO ratios are from cells incubated with the efficacy control 1 μM S1P and 1% DMSO, respectively. The percent activities were plotted against compound concentration to determine EC50 using XLFit (IDBS).

[3] = molecular target: T3, hS1P1R (hEdg1) membrane protein (Homo sapiens, UniProt P21453); experiment: hS1P1R GTPγS binding assay (Assay 3a); type: biochemical
T3 construct: purchased Lonza
Procedure: Assay 3a: The hS1P1R GTPγS binding assay was carried out at room temperature in 96 well non-binding surface assay plates. The reaction in each well contained 4 μg hS1P1R (hEdg1) membrane protein (Lonza), 30 μM GDP, 0.1 nM [^35S]GTPγS, 0.25% fatty acid free BSA, and serially diluted hS1P1R agonist compound in 200 μL assay buffer (25 mM Tris-HCl PH 7.9, 100 mM NaCl, 3 mM MgCl2, and 0.2 mM EGTA). After one hour of incubation, 0.9 mg of WGA (Wheat Germ Agglutinin) SPA beads in 50 μL of assay buffer was added to each well. The SPA beads were spun down after an additional one hour incubation. The radioactivity of the bound GTPγS was counted by reading the assay plate using a MicroBeta.

[4] = molecular target: T4, S1P3 (Homo sapiens, UniProt Q99500); experiment: S1P3 Tango β-arrestin recruitment assay in HEK293 cells (Assay 5); type: cell-based
T4 construct: host or cells: HEK293 (transient transfection)
From the text: as §1
Assay 2a: Frozen HEK293 cells transiently transfected with receptor cDNAs for S1P1 (Invitrogen) are thawed and suspended in 10 mL of Pro293a-CDM culture medium (Invitrogen) supplemented with 4 mM L-Glutamine (Invitrogen), 1× Pen/Strep (100 units/mL penicillin and 100 μg/mL streptomycin, Invitrogen) and 0.1% fatty acid free BSA (Sigma-Aldrich). Cells are added to the wells of a 384-well white opaque bottom assay plate (PerkinElmer) at 3,000-6,000 cells per well and the plate is incubated for approximately 4 h in a 37° C. incubator. Test compounds are tested at maximum concentrations of 10 μM for the agonist assays. Compounds are diluted in DMSO (10 concentration points, 3-fold each) and added to the assay plate at a 1% final DMSO concentration. For each compound, there are duplicate assay plates and each assay plate has duplicate wells per concentration point. The plate is incubated at 37° C. for 30 min. The efficacy control is 5 μM S1P (Avanti). Following agonist addition, the assay plates are incubated in a 37° C. incubator for 16-18 h. Luciferase assay reagent is added and luminescence measured in an EnVision plate reader (PerkinElmer). To determine agonist activity, percent activity is calculated as [(test compound−background)/(positive control−background)*100], where background is the luminescence of the DMSO alone control and the positive control is the luminescence from cells incubated with the efficacy control 5 μM S1P. The percent activities are plotted against compound concentration to determine EC50 using XLFit (IDBS).
This assay was conducted using the procedures described in Assay 2a, replacing S1P1 with S1P3.

T2 sequence (P32121 whole entry): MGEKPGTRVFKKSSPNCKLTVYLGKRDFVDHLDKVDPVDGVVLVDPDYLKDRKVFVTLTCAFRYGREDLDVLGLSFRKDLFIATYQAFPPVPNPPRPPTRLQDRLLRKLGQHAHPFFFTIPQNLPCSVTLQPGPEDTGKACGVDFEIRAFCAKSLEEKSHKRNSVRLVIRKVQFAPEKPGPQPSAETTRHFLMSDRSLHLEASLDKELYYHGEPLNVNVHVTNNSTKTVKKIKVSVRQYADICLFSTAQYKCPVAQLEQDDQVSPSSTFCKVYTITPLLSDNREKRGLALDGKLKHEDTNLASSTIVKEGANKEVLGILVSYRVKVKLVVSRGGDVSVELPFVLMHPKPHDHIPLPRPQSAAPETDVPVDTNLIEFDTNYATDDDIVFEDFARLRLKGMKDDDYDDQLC
T2 sequence (P21453 whole entry): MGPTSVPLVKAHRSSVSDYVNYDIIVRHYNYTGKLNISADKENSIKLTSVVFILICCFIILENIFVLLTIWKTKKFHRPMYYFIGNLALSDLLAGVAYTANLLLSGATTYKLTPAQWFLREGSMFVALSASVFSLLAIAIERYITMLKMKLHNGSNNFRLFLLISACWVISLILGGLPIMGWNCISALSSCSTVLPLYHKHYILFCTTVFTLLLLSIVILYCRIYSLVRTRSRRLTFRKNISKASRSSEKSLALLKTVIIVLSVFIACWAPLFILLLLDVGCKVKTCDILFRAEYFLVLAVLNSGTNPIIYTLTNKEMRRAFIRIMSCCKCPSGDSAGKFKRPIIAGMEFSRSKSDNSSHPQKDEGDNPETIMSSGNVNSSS
T4 sequence (P32121 whole entry): as the sequence (P32121 whole entry) above
T4 sequence (Q99500 whole entry): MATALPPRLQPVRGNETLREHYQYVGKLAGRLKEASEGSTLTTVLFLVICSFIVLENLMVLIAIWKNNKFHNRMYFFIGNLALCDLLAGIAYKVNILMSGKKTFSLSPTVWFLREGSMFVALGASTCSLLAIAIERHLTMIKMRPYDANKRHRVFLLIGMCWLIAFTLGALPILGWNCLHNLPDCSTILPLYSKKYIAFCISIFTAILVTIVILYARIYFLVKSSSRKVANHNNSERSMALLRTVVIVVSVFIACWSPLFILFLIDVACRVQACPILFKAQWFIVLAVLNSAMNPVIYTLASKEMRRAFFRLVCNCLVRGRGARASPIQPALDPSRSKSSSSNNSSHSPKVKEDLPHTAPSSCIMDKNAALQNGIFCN
T1 sequence (Q9H228 whole entry): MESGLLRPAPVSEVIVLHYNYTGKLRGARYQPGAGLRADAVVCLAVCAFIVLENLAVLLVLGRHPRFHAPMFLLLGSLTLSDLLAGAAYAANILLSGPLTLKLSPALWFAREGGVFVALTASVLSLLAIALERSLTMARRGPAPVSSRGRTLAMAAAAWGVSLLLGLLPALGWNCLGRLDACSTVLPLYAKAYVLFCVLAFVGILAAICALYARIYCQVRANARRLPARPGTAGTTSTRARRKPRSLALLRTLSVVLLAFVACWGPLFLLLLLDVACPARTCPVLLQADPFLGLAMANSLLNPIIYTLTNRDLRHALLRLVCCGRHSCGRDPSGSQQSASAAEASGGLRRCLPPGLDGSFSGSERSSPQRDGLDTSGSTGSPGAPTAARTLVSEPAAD
T3 sequence (P21453 whole entry): as the sequence (P21453 whole entry) above

Row | EC50 [1] | EC50 [2] | EC50 [3] | EC50 ([4]; read-out: Assay 5 EC50) | EC50 ([4]; * = rEC50 measured rather than EC50, read-out: Assay 5 rEC50 (relative EC50, cells marked *)) | SMILES
1 | 250 to 2800 nM | ≤ 10 nM | 50 to 250 nM | > 250 nM | – | CC(C)Oc1ccc(-c2nnc(-c3cc(F)c(OCC(N)CO)cc3Cl)s2)cn1 (stereo not shown) [Entry 19, 2-amino-3-{[5-chloro-2-fluoro-4-(5-{6-[(1-methylethyl)oxy]pyridin-3-yl}-1,3,4-thiadiazol-2-yl)phenyl]oxy}propan-1-ol]
2 | 250 to 2800 nM | 250 to 2800 nM | 50 to 250 nM | > 10000 nM | – | CC(C)Oc1ncc(-c2nnc(-c3cc(F)c(OC[C@H](N)CO)cc3Cl)s2)cc1Cl [Entry 20, (2R)-2-amino-3-{[5-chloro-4-(5-{5-chloro-6-[(1-methylethyl)oxy]pyridin-3-yl}-1,3,4-thiadiazol-2-yl)-2-fluorophenyl]oxy}propan-1-ol]
3 | 50 to 250 nM | 10 to 50 nM | 50 to 250 nM | > 10000 nM | – | CC(C)N(C)c1cc(-c2nnc(-c3cc(F)c(OC[C@H](N)CO)cc3Cl)s2)cc(Cl)n1 [Entry 21, (2R)-2-amino-3-{[5-chloro-4-(5-{2-chloro-6-[methyl(1-methylethyl)amino]pyridin-4-yl}-1,3,4-thiadiazol-2-yl)-2-fluorophenyl)oxy}propan-1-ol]
4 | 50 to 250 nM | 10 to 50 nM | 10 to 50 nM | > 10000 nM | – | CC(C)Oc1ccc(-c2nnc(-c3cc(F)c(OC[C@H](N)CO)cc3Cl)s2)nc1Cl [Entry 22, (2R)-2-amino-3-{[5-chloro-4-(5-{6-chloro-5-[(1-methylethyl)oxy]pyridin-2-yl}-1,3,4-thiadiazol-2-yl)-2-fluorophenyl]oxy}propan-1-ol]
5 | 250 to 2800 nM | 50 to 250 nM | 250 to 2800 nM | > 10000 nM | – | N[C@H](CO)COc1cc(Cl)c(-c2nnc(-c3cc(F)cc(Br)c3)s2)cc1F [Entry 24, (2R)-2-amino-3-({4-[5-(3-bromo-5-fluorophenyl)-1,3,4-thiadiazol-2-yl]-5-chloro-2-fluorophenyl}oxy)propan-1-ol]
6 | 50 to 250 nM | 10 to 50 nM | 10 to 50 nM | > 10000 nM | – | CCOc1ccc(-c2nnc(-c3cc(F)c(OC[C@H](N)CO)cc3Cl)s2)cc1Cl [Entry 25, (2R)-2-amino-3-[(5-chloro-4-{5-[3-chloro-4-(ethyloxy)phenyl]-1,3,4-thiadiazol-2-yl}-2-fluorophenyl)oxy]propan-1-ol]
7 | ≤ 10 nM | ≤ 10 nM | ≤ 10 nM | ≤ 250 nM | – | CC(C)Oc1ccc(-c2nnc(-c3cc(F)c(OC[C@H](N)COP(=O)(O)O)cc3Cl)s2)cc1Br [Entry 29, (2S)-2-amino-3-{[4-(5-{3-bromo-4-[(1-methylethyl)oxy]phenyl}-1,3,4-thiadiazol-2-yl)-5-chloro-2-fluorophenyl]oxy}propyl dihydrogen phosphate]
8 | 250 to 2800 nM | ≤ 10 nM | 10 to 50 nM | ≤ 250 nM | – | CC(C)Oc1ncc(-c2nnc(-c3cc(F)c(OC[C@@H](N)CO)cc3Cl)s2)cc1Cl [Entry 32, (2S)-2-amino-3-{[5-chloro-4-(5-{5-chloro-6-[(1-methylethyl)oxy]pyridin-3-yl}-1,3,4-thiadiazol-2-yl)-2-fluorophenyl]oxy}propan-1-ol]
9 | 250 to 2800 nM | 50 to 250 nM | 250 to 2800 nM | > 10000 nM | – | CC(C)Oc1ccc(-c2nnc(-c3cc(F)c(OC[C@H](N)CO)cc3Cl)s2)cn1 [Entry 35, (2R)-2-amino-3-{[5-chloro-2-fluoro-4-(5-{6-[(1-methylethyl)oxy]pyridin-3-yl}-1,3,4-thiadiazol-2-yl)phenyl]oxy}propan-1-ol]
10 | 250 to 2800 nM | ≤ 10 nM | 10 to 50 nM | ≤ 250 nM | – | CC(C)Oc1ccc(-c2nnc(-c3cc(F)c(OC[C@@H](N)CO)cc3Cl)s2)cn1 [Entry 38, (2S)-2-amino-3-{[5-chloro-2-fluoro-4-(5-{6-[(1-methylethyl)oxy]pyridin-3-yl}-1,3,4-thiadiazol-2-yl)phenyl]oxy}propan-1-ol]
11 | 10 to 50 nM | 50 to 250 nM | ≤ 10 nM | > 10000 nM | – | CC(C)Oc1ccc(-c2nnc(-c3cc(Cl)c(OC[C@H](N)CO)c(Cl)c3)s2)cc1Cl [Entry 39, (2R)-2-amino-3-{[2,6-dichloro-4-(5-{3-chloro-4-[(1-methylethyl)oxy]phenyl}-1,3,4-thiadiazol-2-yl)phenyl]oxy}propan-1-ol]
12 | 10 to 50 nM | 10 to 50 nM | ≤ 10 nM | > 10000 nM | – | CC(C)Oc1ccc(-c2nnc(-c3cc(F)c(OC[C@H](N)CO)c(Cl)c3)s2)cc1Cl [Entry 40, (2R)-2-amino-3-{[2-chloro-4-(5-{3-chloro-4-[(1-methylethyl)oxy]phenyl}-1,3,4-thiadiazol-2-yl)-6-fluorophenyl]oxy}propan-1-ol]
13 | > 10000 nM | ≤ 10 nM | 250 to 2800 nM | > 10000 nM | – | CC(C)N(C)c1cc(-c2nnc(-c3cc(F)c(OCC(N)CO)cc3Cl)s2)ccn1 (stereo not shown) [Entry 41, 2-amino-3-{[5-chloro-2-fluoro-4-(5-{2-[methyl(1-methylethyl)amino]pyridin-4-yl}-1,3,4-thiadiazol-2-yl)phenyl]oxy}propan-1-ol]
14 | 10 to 50 nM | 50 to 250 nM | ≤ 10 nM | > 10000 nM | – | CC(C)Nc1ccc(-c2nnc(-c3cc(F)c(OC[C@H](N)CO)cc3Cl)s2)cc1Cl [Entry 43, (2R)-2-amino-3-{[5-chloro-4-(5-{3-chloro-4-[(1-methylethyl)amino]phenyl}-1,3,4-thiadiazol-2-yl)-2-fluorophenyl]oxy}propan-1-ol]
15 | 10 to 50 nM | ≤ 10 nM | ≤ 10 nM | – | > 250 nM | CC(C)Nc1ccc(-c2nnc(-c3cc(F)c(OC[C@@H](N)CO)cc3Cl)s2)cc1Cl [Entry 45, (2S)-2-amino-3-{[5-chloro-4-(5-{3-chloro-4-[(1-methylethyl)amino]phenyl}-1,3,4-thiadiazol-2-yl)-2-fluorophenyl]oxy}propan-1-ol]
16 | 250 to 2800 nM | 10 to 50 nM | 250 to 2800 nM | > 10000 nM | – | CC(C)Nc1ccc(-c2nnc(-c3cc(F)c(OC[C@H](N)[C@@H](C)O)cc3Cl)s2)cn1 [Entry 46, (2R,3S)-3-amino-4-{[5-chloro-2-fluoro-4-(5-{6-[(1-methylethyl)amino]pyridin-3-yl}-1,3,4-thiadiazol-2-yl)phenyl]oxy}butan-2-ol]
